Measured values taken from US20230061417A1, “THIENOPYRIMIDINE DERIVATIVES AS LPA RECEPTOR 2 INHIBITORS” (CHIESI FARMACEUTICI S.P.A., priority 2019, published 2023).

molecular target: T1, human recombinant LPA2 (Homo sapiens, UniProt Q9HBW0); experiment: FLIPR calcium mobilization assay, LPA2 antagonism in CHO-hLPA2 cells; assay type: cell-based; conditions: human recombinant LPA2 in CHO cells, LPA EC80 stimulation, 30 min pre-incubation; read-out: LPA2 IC50
T1 construct: expressed in transfected cells; host or cells: CHO (CHO-hLPA2 cell line)
Description: The effectiveness of compounds of the present invention as LPA2 antagonist can be determined at the human recombinant LPA2 expressed in CHO cells, using a FLIPR assay in 384 well format.
CHO-hLPA2 cell lines are cultured in a humidified incubator at 5% CO2 in DMEM/F-12 (1:1) MIXTURE with 2 mM Glutamax, supplemented with 10% of Foetal Bovine Serum, 1 mM Sodium Pyruvate, 11 mM Hepes and 1× Penicillin/Streptomycin. CHO hLPA2 cells are seeded into black walled clear-bottom 384-well plates (#781091, Greiner Bio-One GmbH) at a density of 7,500 cells per well in 50 μl culture media and grown overnight in a 37° C. humidified CO2-incubator. Serial dilutions (1:3 or 1:4, 11 points CRC) of compounds are performed in 100% DMSO at 200× the final concentration. The compounds are diluted 1:50 prior to the experiment with Assay Buffer (20 mM HEPES, 145 mM NaCl, 5 mM KCl, 5.5 mM glucose, 1 mM MgCl2 and 2 mM CaCl2, pH 7.4 containing 0.01% Pluronic F-127) to obtain a solution corresponding to […] the final concentration in the assay (4×, 2% DMSO). The final concentration of DMSO in the assay will be 0.5% in each well. Medium is removed by aspiration and cells are then incubated with 30 μl of a loading solution containing 5 μM of the cytoplasmic Ca2+ indicator Cal-520 AM in Assay Buffer containing 2.5 mM probenecid for 30 min at 37° C. incubator (cell loading). The loaded cell plates are transferred into the FLIPR instrument and calcium responses are monitored during the on-line addition protocols. For testing of compounds, after the cell loading, 10 μl/well of 4× antagonists' solution was added onto the cells. After 30 min pre-incubation (at 37° C.), 10 μl/well of 5× concentrated LPA EC80 was added and Ca2+ mobilization responses was followed during the on-line addition protocol. Intracellular peak fluorescence values subtracted by baseline fluorescence are exported and analysed to determine IC50 values, respectively. The calcium response is expressed as percentage of the maximal inhibition of the EC80 agonist response.
The raw data (peak height expressed as relative fluorescence units) are normalized and transformed into “percent of inhibition”. Curve fitting and pIC50 (−Log IC50) estimations are carried out using a four-parameter logistic model using XLfit Software.

T1 sequence (Q9HBW0 whole entry): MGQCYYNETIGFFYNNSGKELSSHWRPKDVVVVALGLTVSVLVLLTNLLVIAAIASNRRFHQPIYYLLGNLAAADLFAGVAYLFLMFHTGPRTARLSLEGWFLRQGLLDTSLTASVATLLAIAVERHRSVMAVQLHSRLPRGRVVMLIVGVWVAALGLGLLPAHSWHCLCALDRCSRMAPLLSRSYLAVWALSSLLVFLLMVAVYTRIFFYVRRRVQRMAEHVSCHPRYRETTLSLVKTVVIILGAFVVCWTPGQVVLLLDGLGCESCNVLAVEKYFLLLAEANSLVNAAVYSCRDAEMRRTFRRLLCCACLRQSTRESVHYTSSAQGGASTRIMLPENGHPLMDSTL

Row | SMILES | IC50
1 | Cc1csc2c(N[C@@H](C)CN3CCN(S(=O)(=O)c4cccc(Br)c4)CC3)ncnc12 [Example 7, N-[(2S)-1-[4-(3-bromobenzenesulfonyl)piperazin-1-yl]propan-2-yl]-7-methylthieno[3,2-d]pyrimidin-4-amine] | < 1 µM
2 | Cc1noc(-c2ccc(S(=O)(=O)N3CCN(C[C@H](C)Nc4ncnc5c(C)csc45)CC3)s2)c1C [Example 28, N-[(2S)-1-(4-{[5-(3,4-dimethyl-1,2-oxazol-5-yl)thiophen-2-yl]sulfonyl}piperazin-1-yl)propan-2-yl]-7-methylthieno[3,2-d]pyrimidin-4-amine] | 0.01 to 0.1 µM
3 | CC(=O)N1CCc2cc(S(=O)(=O)N3CCN(C[C@H](C)Nc4ncnc5c(C)csc45)CC3)ccc21 [Example 24, 1-[5-({4-[(2S)-2-({7-methylthieno[3,2-d]pyrimidin-4-yl}amino)propyl]piperazin-1-yl}sulfonyl)-2,3-dihydro-1H-indol-1-yl]ethan-1-one] | < 1 µM
4 | Cc1nc(-c2ccc(S(=O)(=O)N3CCN(C[C@H](C)Nc4ncnc5c(C)csc45)CC3)s2)cs1 [Example 27, 7-methyl-N-[(2S)-1-(4-{[5-(2-methyl-1,3-thiazol-4-yl)thiophen-2-yl]sulfonyl}piperazin-1-yl)propan-2-yl]thieno[3,2-d]pyrimidin-4-amine] | < 1 µM
5 | CC(=O)Nc1cc(F)c(S(=O)(=O)N2CCN(C[C@H](C)Nc3ncnc4c(C)csc34)CC2)cc1Cl [Example 18, N-[2-chloro-5-fluoro-4-({4-[(2S)-2-({7-methylthieno[3,2-d]pyrimidin-4-yl}amino)propyl]piperazin-1-yl}sulfonyl)phenyl]acetamide] | < 1 µM
6 | Cc1csc2c(N[C@@H](C)CN3CCN(S(=O)(=O)c4cnn(-c5ccc(C(F)(F)F)cn5)c4)CC3)ncnc12 [Example 25, 7-methyl-N-[(2S)-1-[4-({1-[5-(trifluoromethyl)pyridin-2-yl]-1H-pyrazol-4-yl}sulfonyl)piperazin-1-yl]propan-2-yl]thieno[3,2-d]pyrimidin-4-amine] | < 1 µM
7 | Cc1csc2c(N[C@@H](C)CN3CCN(S(=O)(=O)c4ccc(NC(=O)c5ccncc5)cc4)CC3)ncnc12 [Example 16, N-[4-({4-[(2S)-2-({7-methylthieno[3,2-d]pyrimidin-4-yl}amino)propyl]piperazin-1-yl}sulfonyl)phenyl]pyridine-4-carboxamide] | < 1 µM
8 | Cc1csc2c(N[C@@H](C)CN3CCN(S(=O)(=O)c4ccc(-c5cc(C(F)(F)F)n(C)n5)s4)CC3)ncnc12 [Example 29, 7-methyl-N-[(2S)-1-[4-({5-[1-methyl-5-(trifluoromethyl)-1H-pyrazol-3-yl]thiophen-2-yl}sulfonyl)piperazin-1-yl]propan-2-yl]thieno[3,2-d]pyrimidin-4-amine] | < 1 µM
9 | CCC(=O)Nc1nc(C)c(S(=O)(=O)N2CCN(C[C@H](C)Nc3ncnc4c(C)csc34)CC2)s1 [Example 19, N-[4-methyl-5-({4-[(2S)-2-({7-methylthieno[3,2-d]pyrimidin-4-yl}amino)propyl]piperazin-1-yl}sulfonyl)-1,3-thiazol-2-yl]propanamide] | < 1 µM

Other lines, results leading:

Row | IC50 | SMILES
10 | < 0.01 µM | COC(=O)Nc1nc(C)c(S(=O)(=O)N2CCN(C[C@H](C)Nc3nc(C4CC4)nc4c(C(F)(F)F)csc34)CC2)s1 [Example 34, methyl N-[5-({4-[(2S)-2-{[2-cyclopropyl-7-(trifluoromethyl)thieno[3,2-d]pyrimidin-4-yl]amino}propyl]piperazin-1-yl}sulfonyl)-4-methyl-1,3-thiazol-2-yl]carbamate]
11 | < 1 µM | CCc1nc(N[C@@H](C)CN2CCN(S(=O)(=O)c3sc(NC(C)=O)nc3C)CC2)c2scc(C)c2n1 [Example 36, N-[5-({4-[(2S)-2-({2-ethyl-7-methylthieno[3,2-d]pyrimidin-4-yl}amino)propyl]piperazin-1-yl}sulfonyl)-4-methyl-1,3-thiazol-2-yl]acetamide]
12 | 0.01 to 0.1 µM | COC(=O)Nc1nc(C)c(S(=O)(=O)N2CCN(C[C@H](C)Nc3nc(C4CC4)nc4c(C)csc34)CC2)s1 [Example 31, methyl N-[5-({4-[(2S)-2-({2-cyclopropyl-7-methylthieno[3,2-d]pyrimidin-4-yl}amino)propyl]piperazin-1-yl}sulfonyl)-4-methyl-1,3-thiazol-2-yl]carbamate]
13 | < 1 µM | Cc1csc2c(N[C@@H](C)CN3CCN(S(=O)(=O)c4ccc(-c5ccccn5)s4)CC3)ncnc12 [Example 30, 7-methyl-N-[(2S)-1-(4-{[5-(pyridin-2-yl)thiophen-2-yl]sulfonyl}piperazin-1-yl)propan-2-yl]thieno[3,2-d]pyrimidin-4-amine]
